In patent US9492460B2, “Carbazole compounds useful as bromodomain inhibitors” (Bristol-Myers Squibb Company, priority 2013, dated 2016):
pIC50: −log10 of the molar value.

Biological target: T1, bromodomain BRD4 (44-168), BRD4 (333-460), and BRD4 (1-477 or 44-460) (Homo sapiens, UniProt O60885)
T1 construct: BRD4(44-168), BRD4(333-460), BRD4(44-460), BRD4(1-477), O60885-1; fused on or other part: N-terminal BirA biotinylation motif, biotinylated; The TVMV-cleavable His6 tag is removed, except in some BRD4(44-460) runs detected with anti-His terbium cryptate
Assay: Time Resolved Fluorescence Resonance Energy Transfer (TR-FRET) binding assay
Conditions: one of the FRET assays described

Structure (SMILES)	pIC50
Cc1noc(C)c1-c1cc(C(N)=O)c2c3cc(NCCO)ccc3n(Cc3ccccc3)c2c1 [Example 137, 9-benzyl-2-(3,5-dimethyl-4-isoxazolyl)-6-((2-hydroxyethyl)amino)-9H-carbazole-4-carboxamide]	> 7.30
CNC(=O)c1cc(-c2c(C)noc2C)cc2c1c1cc(C(=O)N3CC(F)C3)ccc1n2CC1CC1 [Example 115]	> 7.30
Cc1noc(C)c1-c1cc(C(N)=O)c2c3cc(C(=O)N4CCC4C)ccc3n(Cc3ccccc3)c2c1 (stereo not shown) [Example 54]	> 7.30
COc1ccc2c(c1)c1c(C(N)=O)cc(-c3c(C)noc3C)cc1n2C(C)c1ccccc1 (single isomer, unassigned) [Example 180, 2-(3,5-dimethyl-4-isoxazolyl)-6-methoxy-9-(1-phenylethyl)-9H-carbazole-4-carboxamide]	> 7.30
Cc1noc(C)c1-c1cc(C(N)=O)c2c3cc(NCCF)ccc3n(Cc3ccccc3)c2c1 [Example 136, 9-benzyl-2-(3,5-dimethyl-4-isoxazolyl)-6-(2-fluoroethylamino)-9H-carbazole-4-carboxamide]	> 7.30
Cc1noc(C)c1-c1cc(C(N)=O)c2c3cc(C(=O)N4CC[C@H](F)C4)ccc3n(Cc3ccccc3)c2c1 [Example 59]	> 7.30
Cc1noc(C)c1-c1cc(C(N)=O)c2c3cc(N4CCCOC4=O)ccc3n(Cc3cc(F)ccc3F)c2c1 [Example 159, 9-(2,5-difluorobenzyl)-2-(3,5-dimethyl-4-isoxazolyl)-6-(2-oxo-1,3-oxazinan-3-yl)-9H-carbazole-4-carboxamide]	> 7.30
COC(=O)c1ccc2c3c(C#N)cc(-c4c(C)noc4C)cc3n(Cc3ccccc3)c2c1 [Example 182, Methyl 9-benzyl-5-cyano-7-(3,5-dimethyl-4-isoxazolyl)-9H-carbazole-2-carboxylate]	> 5.12
Cc1noc(C)c1-c1cc(C(N)=O)c2c3cc(C(=O)N4CC(C)OC(C)C4)ccc3n(Cc3ccccc3F)c2c1 (stereo not shown) [Example 31]	> 7.30
Cc1nnn(C)c1-c1cc(C(N)=O)c2c3ccc(C(C)(C)O)cc3n(C(c3ccccc3)C3CCOCC3)c2c1 (single isomer, unassigned) [Example 233, 2-(1,4-Dimethyl-1H-1,2,3-triazol-5-yl)-7-(2-hydroxypropan-2-yl)-9-(phenyl(tetrahydro-2H-pyran-4-yl)methyl)-9H-carbazole-4-carboxamide]	> 7.30
COC1CCN(C(=O)c2ccc3c(c2)c2c(C(N)=O)cc(-c4c(C)noc4C)cc2n3Cc2ccccc2)CC1 [Example 70]	> 7.30
Cc1noc(C)c1-c1cc(C(N)=O)c2c3cc(N4CCOC4=O)ccc3n(Cc3ccccc3)c2c1 [Example 161, 9-benzyl-2-(3,5-dimethyl-4-isoxazolyl)-6-(2-oxo-1,3-oxazolidin-3-yl)-9H-carbazole-4-carboxamide]	> 7.30
CNC(=O)c1cc(-c2c(C)noc2C)cc2c1c1cc(C(=O)N3CC(F)C3)ccc1n2Cc1ccc(Cl)cc1F [Example 110]	> 7.30
Cc1noc(C)c1-c1cc(C(N)=O)c2c3cc(O)ccc3n(Cc3ccccc3)c2c1 [Example 178, 9-benzyl-2-(3,5-dimethyl-4-isoxazolyl)-6-hydroxy-9H-carbazole-4-carboxamide]	> 7.30
CNC(=O)c1cc(-c2c(C)noc2C)cc2c1c1cc(N3CCCOC3=O)ccc1n2C(C)c1ccccc1 (stereo not shown) [Example 173, 2-(3,5-dimethyl-4-isoxazolyl)-N-methyl-6-(2-oxo-1,3-oxazinan-3-yl)-9-(1-phenylethyl)-9H-carbazole-4-carboxamide]	> 5.12
Cc1noc(C)c1-c1cc(C(N)=O)c2c3cc(C(=O)N4CCC(F)(F)C4)ccc3n(Cc3ccccc3)c2c1 [Example 61]	> 7.30
Cc1noc(C)c1-c1ccc2c3cc(C(=O)N4CC(C)OC(C)C4)ccc3n(CC(F)F)c2c1 (stereo not shown) [Example 7]	> 6.30
CNC(=O)c1cc(-c2c(C)noc2C)cc2c1c1cc(C(=O)N3CC(F)C3)ccc1n2C(C)c1ccc(Cl)cc1 (stereo not shown) [Example 111]	> 7.30
Cc1noc(C)c1-c1cc(C(N)=O)c2c3cc(C(=O)N4CC(F)C4)ccc3n(CC3CCC3)c2c1 [Example 90]	> 7.30
Cc1noc(C)c1-c1ccc2c3cc(C(=O)N4CC(C)OC(C)C4)ccc3n(Cc3ccccc3F)c2c1 (stereo not shown) [Example 16]	> 5.12
Cc1noc(C)c1-c1cc(C(N)=O)c2c3cc(C(=O)N4CC(F)C4)ccc3n(C(C)c3ccccc3C(F)(F)F)c2c1 (stereo not shown) [Example 89]	> 7.30
Cc1noc(C)c1-c1cc(C(N)=O)c2c3cc(C(=O)N4CC(C)OC(C)C4)ccc3n(Cc3cccc(C#N)c3)c2c1 (stereo not shown) [Example 44]	> 7.30

Structure (SMILES)	pIC50
Cc1noc(C)c1-c1cc(C(N)=O)c2c3cc(C(=O)NCCN4CCOCC4)ccc3n(Cc3ccccc3)c2c1 [Example 76]	> 7.30
CCNC(=O)c1cc(-c2c(C)noc2C)cc2c1c1cc(N3CCCOC3=O)ccc1n2Cc1ccc(Cl)cc1 [Example 166, 9-(4-chlorobenzyl)-2-(3,5-dimethyl-4-isoxazolyl)-N-ethyl-6-(2-oxo-1,3-oxazinan-3-yl)-9H-carbazole-4-carboxamide]	> 5.12
CCCn1c2ccc(C(=O)N3CC(C)OC(C)C3)cc2c2ccc(-c3c(C)noc3C)cc21 (stereo not shown) [Example 3]	> 6.30
Cc1noc(C)c1-c1ccc2c3cc(C(=O)N4C[C@@H](C)O[C@@H](C)C4)ccc3n(S(C)(=O)=O)c2c1 [Example 23, 2-(3,5-dimethyl-4-isoxazolyl)-6-((cis-2,6-dimethyl-4-morpholinyl)carbonyl)-9-(methylsulfonyl)-9H-carbazole]	> 5.12
CNC(=O)c1cc(-c2c(C)noc2C)cc2c1c1cc(N3CCCOC3=O)ccc1n2Cc1ccc(F)cc1 [Example 171, 2-(3,5-dimethyl-4-isoxazolyl)-9-(4-fluorobenzyl)-N-methyl-6-(2-oxo-1,3-oxazinan-3-yl)-9H-carbazole-4-carboxamide]	> 7.30
CNC(=O)c1cc(-c2c(C)noc2C)cc2c1c1cc(C(=O)N3CC(F)C3)ccc1n2Cc1ccc(C#N)cc1 [Example 108]	> 7.30
Cc1noc(C)c1-c1cc(C(N)=O)c2c3cc(C(=O)N4CCOCC4)ccc3n(Cc3ccccc3)c2c1 [Example 47, 9-benzyl-2-(3,5-dimethyl-4-isoxazolyl)-6-(4-morpholinylcarbonyl)-9H-carbazole-4-carboxamide]	> 7.30
CCNC(=O)c1cc(-c2c(C)noc2C)cc2c1c1cc(N3CCCOC3=O)ccc1n2Cc1ccccc1 [Example 165, 9-benzyl-2-(3,5-dimethyl-4-isoxazolyl)-N-ethyl-6-(2-oxo-1,3-oxazinan-3-yl)-9H-carbazole-4-carboxamide]	> 6.30
CNC(=O)c1cc(-c2c(C)noc2C)cc2c1c1cc(C(=O)N3CC(F)C3)ccc1n2C(C)c1ccc(F)cc1 (stereo not shown) [Example 112]	> 6.30
Cc1noc(C)c1-c1cc(C(N)=O)c2c3ccc(C(C)(C)O)cc3n(C(c3ccc(F)cc3)C3CCOCC3)c2c1 (single isomer, unassigned) [Example 220, 2-(Dimethyl-1,2-oxazol-4-yl)-9-[(4-fluorophenyl)(oxan-4-yl)methyl]-7-(2-hydroxypropan-2-yl)-9H-carbazole-4-carboxamide]	> 7.30
CNC(=O)c1cc(-c2c(C)noc2C)cc2c1c1cc(N(C)C(C)=O)ccc1n2Cc1ccccc1 [Example 132, 6-(acetyl(methyl)amino)-9-benzyl-2-(3,5-dimethyl-4-isoxazolyl)-N-methyl-9H-carbazole-4-carboxamide]	> 7.30
Cc1noc(C)c1-c1cc(C(N)=O)c2c3cc(C(=O)N4CCC(CO)CC4)ccc3n(Cc3ccccc3)c2c1 [Example 68]	> 7.30
Cc1noc(C)c1-c1ccc2c3cc(C(=O)N4CC(C)OC(C)C4)ccc3n(Cc3ccc(F)cc3)c2c1 (stereo not shown) [Example 18]	> 6.30
Cc1noc(C)c1-c1cc(C(N)=O)c2c3cc(C(=O)N4CC(F)C4)ccc3n(C(C)c3ccc(F)cc3)c2c1 (stereo not shown) [Example 91]	> 7.30
Cc1noc(C)c1-c1cc(C(N)=O)c2c3ccc(C(C)(C)O)cc3n(C[C@@]3(F)C[C@@H]4CC[C@H]3O4)c2c1 (relative stereo) [Example 225, rel-2-(dimethyl-1,2-oxazol-4-yl)-9-{[(1R,2S,4S)-2-fluoro-7-oxabicyclo[2.2.1]heptan-2-yl]methyl}-7-(2-hydroxypropan-2-yl)-9H-carbazole-4-carboxamide]	> 7.30
Cc1noc(C)c1-c1ccc2c3cc(C(=O)N4CC(C)OC(C)C4)ccc3n(Cc3cccc(Cl)c3)c2c1 (stereo not shown) [Example 13]	> 6.30
Cc1noc(C)c1-c1cc(C(N)=O)c2c3ccc(C(=O)c4cccc(F)c4)cc3n(Cc3ccccc3)c2c1 [Example 190, 9-Benzyl-2-(3,5-dimethyl-4-isoxazolyl)-7-(3-fluorobenzoyl)-9H-carbazole-4-carboxamide]	> 6.30
Cc1noc(C)c1-c1cc(C(N)=O)c2c3cc(N4CCCOC4=O)ccc3n(Cc3ccc(Cl)cc3)c2c1 [Example 157, 9-(4-chlorobenzyl)-2-(3,5-dimethyl-4-isoxazolyl)-6-(2-oxo-1,3-oxazinan-3-yl)-9H-carbazole-4-carboxamide]	> 7.30
Cc1oncc1-c1cc(C(N)=O)c2c3cc(C(=O)N4CCOCC4)ccc3n(Cc3ccc(F)cc3)c2c1 [Example 123, 9-(4-fluorobenzyl)-2-(5-methylisoxazol-4-yl)-6-(morpholine-4-carbonyl)-9H-carbazole-4-carboxamide]	> 6.30
Cc1noc(C)c1-c1cc(C(N)=O)c2c3cc(NC(=O)C4CCCC4)ccc3n(Cc3ccccc3)c2c1 [Example 149, 9-benzyl-6-((cyclopentylcarbonyl)amino)-2-(3,5-dimethyl-4-isoxazolyl)-9H-carbazole-4-carboxamide]	> 7.30
COC(=O)Nc1ccc2c(c1)c1c(C(N)=O)cc(-c3c(C)noc3C)cc1n2Cc1ccccc1 [Example 144, methyl (9-benzyl-5-carbamoyl-7-(3,5-dimethyl-4-isoxazolyl)-9H-carbazol-3-yl)carbamate]	> 7.30
